Reference: PMC11401910, “Dual client binding sites in the ATP-independent chaperone SurA” (Nature Communications, 2024)
pKd: −log10 of the molar value. “Also recorded” adds a separate entry of the source. Like-named read-outs stand apart in the source and are kept apart here.

Assays:
SurA-WT [1] = biological target: T1, SurA-WT (Escherichia coli, UniProt P0ABZ6); type: binding; set-up: made in house; host or cells: E. coli BL21(DE3)
Experimental: All NMR experiments were performed on a 950-MHz Bruker Ascend Avance III HD NMR spectrometer equipped with either a Bruker 3 mm TCI or 5 mm TXO triple-resonance cryogenically cooled probe. Peptide binding experiments were performed in 5 mM EDTA, 20 mM Tris-HCl, pH 8.0 with 5 % (v/v) D2O at 25 °C. Binding experiments using full-length OMP sequences also contained 0.8 M urea. Data was acquired for ~16 h with the exception of OMP-containing experiments which were acquired for ~5 h. […] (2D ^1H-^13C SOFAST-HMQC)[70]. […] Errors in the intensity ratios for each peak between two spectra were obtained by propagating the errors according to:1 δR=R*δX/X+δY/Y where δR is the error in the intensity ratio, |R| is the value of the intensity ratio, X and Y are the intensity values for the peak in the first and second spectrum, respectively, and δX and δY are the noise floor values for the first and second spectrum, respectively.
Z-scores for intensity ratio and CSP data were calculated using:3 Zi=xi−μ/σ where xi is the value for a particular peak, and µ and σ are the mean and standard deviation for all peaks, respectively.
For assignment of SurA-WT Ile and Met residues (43 in total) each residue was individually mutated (Supplementary Table 3), and the effect of the mutation assessed by methyl-TROSY NMR. Samples contained 5–70 µM SurA variant. Assignment experiments (2D ^1H-^13C SOFAST-HMQCs) for Ile or Met variants were performed in 20 mM sodium phosphate, 50 mM NaCl, pH 7.5 (at 35 °C), or 20 mM Tris-HCl, pH 8 (at 25 °C), respectively. […] The ^1H chemical shift assignments were referenced using 2,2-dimethyl-2-silapentane-5-sulphonic acid (DSS) at 25 °C as a standard. The ^13C chemical shifts were referenced indirectly to DSS. NMR assignments have been deposited in the Biological Magnetic Resonance Bank (BMRB) with Entry ID 52180.

SurA-WT [2] = biological target: T1, SurA-WT; conditions: pH 8
Description: (1 picture or pasted object on this page, not shown here)
Source data are provided as a Source Data file.

SurA = conditions: read-out: Kd, binding of peptide to SurA; cited from earlier work
Description: (where Ar is an aromatic residue and X is any amino acid), or aromatic-enriched sequences containing an Ar-X-Ar-X-Pro motif. […] Both of these types of peak changes (shifts and/or broadening), can report on binding or conformational changes caused by binding at the location of the corresponding ^13CH3 probe[73],[74].

[3] = 5 µM SurA-WT, 200 µM peptide (SVD and WEYIPNV 50 µM), 5 mM EDTA, 20 mM Tris-HCl pH 8, 25 °C

T1 sequence (P0ABZ6 other isoform, or with tags, fused parts or gaps): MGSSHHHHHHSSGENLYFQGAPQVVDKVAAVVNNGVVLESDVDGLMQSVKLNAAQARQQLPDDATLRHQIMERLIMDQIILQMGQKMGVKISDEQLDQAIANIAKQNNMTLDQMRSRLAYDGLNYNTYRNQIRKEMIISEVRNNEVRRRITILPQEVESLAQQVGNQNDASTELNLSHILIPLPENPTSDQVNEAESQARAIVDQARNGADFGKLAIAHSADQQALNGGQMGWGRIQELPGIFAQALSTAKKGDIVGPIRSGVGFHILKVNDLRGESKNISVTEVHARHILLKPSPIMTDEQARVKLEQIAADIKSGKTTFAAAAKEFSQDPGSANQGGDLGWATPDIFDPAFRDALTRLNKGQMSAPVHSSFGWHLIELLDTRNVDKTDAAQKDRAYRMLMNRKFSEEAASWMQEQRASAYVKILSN

Row | Compound | Interaction of peptide with SurA-WT binding sites (core, P1) by methyl-TROSY NMR, in words (SurA-WT [1]; [3]) | Interaction of peptide with SurA-WT binding sites (core, P1) by methyl-TROSY NMR, in words (SurA-WT [1]; pH 8) | Affinity of peptide for SurA-WT by ITC (in words) (SurA-WT [2]) | pKd (SurA)
1 | CSCC[C@H](NC(=O)[C@H](CCCCN)NC(=O)[C@H](CC(N)=O)NC(=O)[C@H](CCSC)NC(=O)[C@H](CCC(N)=O)NC(C)=O)C(=O)NCC(=O)NCC(=O)N[C@@H](Cc1ccccc1)C(=O)N[C@@H](CC(N)=O)C(=O)N[C@@H](CC(C)C)C(=O)N[C@@H](CCCCN)C(=O)N[C@@H](Cc1ccc(O)cc1)C(=O)N[C@@H](CCCNC(=N)N)C(=O)N[C@@H](Cc1ccc(O)cc1)C(=O)N[C@@H](CCC(=O)O)C(N)=O [QMN] | also affect the peak for M231 in the P1 domain; also recorded: binding results in conformational changes associated with core-P1 opening |  |  | 
2 | Ac-KHDTSDYGFSYGAGL-NH2 [KHD] | also affect the peak for M231 in the P1 domain |  |  | 
3 | NLKYRYE [QMN^C-term, C-terminal seven residues of QMN] |  | demonstrated binding at the core site, but with binding largely abolished at the P1 site |  | 
4 | WEYIPNV [reference compound] |  | severe broadening of the resonance for M231; also recorded: substantial CSPs in the P1 domain | consistent with literature values | 4.85 to 6.00
